Laboratory results as given in publication PMC13168289, “Potent acridone antimalarial against all three life stages of Plasmodium” (Nature Communications, 2026).

Columns and labels:
[1] = cytotoxicity against HepG2 cells; type: cell-based; conditions: human, HepG2 cells; read-out: inhibition IC50 vs HepG2
Description: Cytotoxicity was evaluated in human HepG2 liver cells, using an MTT assay. Briefly, HepG2 cells were cultured in complete Dulbecco’s modified Eagle’s medium (DMEM; Gibco-Invitrogen, No. 11995-065) prepared by supplementing DMEM with 10% heat inactivated FBS (Gibco-Invitrogen, No. 16000-036), 100 units/mL penicillin, and 100 µg/mL streptomycin. Cell viability was assessed using trypan blue. Ninety-six-well plates were seeded with 2 × 10^4 cells per well and incubated at 37 °C overnight in a humidified 5% CO2 atmosphere. Test compound plates were prepared with an INTEGRA assist plus station and 96-well plates containing 11 duplicate 2-fold serial dilutions of test compound suspended in DMSO. The diluted test compound was then added to the corresponding well preseeded with HepG2 cells. […] After incubation, 20 µL of a 0.1 mg/mL solution of resazurin diluted in PBS was added to each well, and all plates were subsequently incubated for 3–4 h in an incubator. Absorbance was determined with the Molecular Devices SpectraMax plate reader. Three independent experiments, each in duplicate, were performed, and the IC50 values were determined using GraphPad Prism software (Version 10) using the non-linear regression equation (sigmoidal dose-response, variable slope).

[2] = test system: P. cynomolgi hypnozoites and schizonts; parameters: method as in PMID: 21483865; conditions: primary hepatocyte P. cynomolgi assays; ref PMID: 21483865; read-out: in vitro liver-stage IC50; cited from earlier work

O=C1C(O)=C([C@H]2CC[C@H](c3ccc(Cl)cc3)CC2)C(=O)c2ccccc21 [ATV, atovaquone]
IC50 at 24 h [1]: 61.2 µM
IC50 [2]: ~2 µM
